Experimental data taken from patent US11725011B2, “Bicyclic urea kinase inhibitors and uses thereof” (The Broad Institute, Inc., priority 2016, dated 2023).

Key:
Test in all cases: KINOMEscan
Assay type in all cases: binding
Details in all cases: 1 uM
SRC = SRC (Homo sapiens (Human), UniProt P12931)
PIM2 = PIM2 (Homo sapiens (Human), UniProt Q9P1W9)
TYRO3 = TYRO3 (Homo sapiens (Human), UniProt Q06418)
LIMK2 = LIMK2 (Homo sapiens (Human), UniProt P53671)
[1] = target: ABL1 (H396P)-nonphosphorylated (Homo sapiens (Human), UniProt P00519, H396P)
p38-beta = p38-beta (Homo sapiens (Human), UniProt Q15759)
BTK = BTK (Homo sapiens (Human), UniProt Q06187)
AKT1 = AKT1 (Homo sapiens (Human), UniProt P31749)
PIK3CA (H1047Y) = PIK3CA (H1047Y) (Homo sapiens (Human), UniProt P42336, H1047Y)
ICK = ICK (Homo sapiens (Human), UniProt Q9UPZ9)
IRAK1 = IRAK1 (Homo sapiens (Human), UniProt P51617)
[2] = target: ABL1 (F317L)-phosphorylated (Homo sapiens (Human), UniProt P00519, F317L)
MLK1 = MLK1 (Homo sapiens (Human), UniProt P80192)
PIK3CA (E545A) = PIK3CA (E545A) (Homo sapiens (Human), UniProt P42336, E545A)
BRSK1 = BRSK1 (Homo sapiens (Human), UniProt Q8TDC3)
EGFR = EGFR (Homo sapiens (Human), UniProt P00533)
CHEK1 = CHEK1 (Homo sapiens (Human), UniProt O14757)
KIT (V559D, V654A) = KIT (V559D, V654A) (Homo sapiens (Human), UniProt P10721, V559D/V654A)
MAP4K2 = MAP4K2 (Homo sapiens (Human), UniProt Q12851)
PRKCE = PRKCE (Homo sapiens (Human), UniProt Q02156)
CASK = CASK (Homo sapiens (Human), UniProt O14936)
DDR2 = DDR2 (Homo sapiens (Human), UniProt Q16832)
SRMS = SRMS (Homo sapiens (Human), UniProt Q9H3Y6)
EGFR (G719C) = EGFR (G719C) (Homo sapiens (Human), UniProt P00533, G719C)
FLT1 = FLT1 (Homo sapiens (Human), UniProt P17948)
ERBB3 = ERBB3 (Homo sapiens (Human), UniProt P21860)
MELK = MELK (Homo sapiens (Human), UniProt Q14680)
PIK3C2G = PIK3C2G (Homo sapiens (Human), UniProt O75747)
MAP3K3 = MAP3K3 (Homo sapiens (Human), UniProt Q99759)
BLK = BLK (Homo sapiens (Human), UniProt P51451)
PRKR = PRKR (Homo sapiens (Human), UniProt P19525)
CSNK1G3 = CSNK1G3 (Homo sapiens (Human), UniProt Q9Y6M4)
TAK1 = TAK1 (Homo sapiens (Human), UniProt O43318)
LOK = LOK (Homo sapiens (Human), UniProt O94804)
MAP4K3 = MAP4K3 (Homo sapiens (Human), UniProt Q8IVH8)
TGFBR1 = TGFBR1 (Homo sapiens (Human), UniProt P36897)
BMPR1A = BMPR1A (Homo sapiens (Human), UniProt P36894)
[3] = target: ABL1 (Q252H)-nonphosphorylated (Homo sapiens (Human), UniProt P00519, Q252H)
FGFR2 = FGFR2 (Homo sapiens (Human), UniProt P21802)
ADCK4 = ADCK4 (Homo sapiens (Human), UniProt Q96D53)
Sequence of ADCK4 (Q96D53 whole entry): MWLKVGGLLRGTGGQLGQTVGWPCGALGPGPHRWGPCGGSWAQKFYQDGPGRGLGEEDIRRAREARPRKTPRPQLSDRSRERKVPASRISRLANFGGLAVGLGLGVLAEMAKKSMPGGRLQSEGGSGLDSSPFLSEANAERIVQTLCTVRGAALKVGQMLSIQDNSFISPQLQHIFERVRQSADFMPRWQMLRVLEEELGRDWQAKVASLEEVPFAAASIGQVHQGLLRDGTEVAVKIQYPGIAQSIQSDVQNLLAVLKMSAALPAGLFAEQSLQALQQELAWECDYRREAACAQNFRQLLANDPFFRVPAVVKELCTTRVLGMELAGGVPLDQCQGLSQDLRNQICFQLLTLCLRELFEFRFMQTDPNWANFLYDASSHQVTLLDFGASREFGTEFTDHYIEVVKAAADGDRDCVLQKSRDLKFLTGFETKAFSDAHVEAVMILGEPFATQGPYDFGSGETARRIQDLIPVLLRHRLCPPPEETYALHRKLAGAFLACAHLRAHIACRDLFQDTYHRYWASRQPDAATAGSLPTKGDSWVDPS

Sequence of CSNK1G3 (Q9Y6M4 whole entry): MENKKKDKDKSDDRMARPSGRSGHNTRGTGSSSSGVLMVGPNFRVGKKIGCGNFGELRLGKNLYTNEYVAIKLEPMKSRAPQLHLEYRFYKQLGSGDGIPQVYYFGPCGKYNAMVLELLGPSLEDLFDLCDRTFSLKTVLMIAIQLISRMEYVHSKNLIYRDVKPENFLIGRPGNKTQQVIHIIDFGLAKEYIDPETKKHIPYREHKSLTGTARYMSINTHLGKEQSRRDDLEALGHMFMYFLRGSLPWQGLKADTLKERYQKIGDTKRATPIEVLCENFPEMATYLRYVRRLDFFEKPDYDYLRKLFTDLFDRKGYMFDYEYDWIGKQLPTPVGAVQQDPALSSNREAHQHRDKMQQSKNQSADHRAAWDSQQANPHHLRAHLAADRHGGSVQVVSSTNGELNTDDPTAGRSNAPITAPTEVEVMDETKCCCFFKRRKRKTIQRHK
Sequence of BLK (P51451 whole entry): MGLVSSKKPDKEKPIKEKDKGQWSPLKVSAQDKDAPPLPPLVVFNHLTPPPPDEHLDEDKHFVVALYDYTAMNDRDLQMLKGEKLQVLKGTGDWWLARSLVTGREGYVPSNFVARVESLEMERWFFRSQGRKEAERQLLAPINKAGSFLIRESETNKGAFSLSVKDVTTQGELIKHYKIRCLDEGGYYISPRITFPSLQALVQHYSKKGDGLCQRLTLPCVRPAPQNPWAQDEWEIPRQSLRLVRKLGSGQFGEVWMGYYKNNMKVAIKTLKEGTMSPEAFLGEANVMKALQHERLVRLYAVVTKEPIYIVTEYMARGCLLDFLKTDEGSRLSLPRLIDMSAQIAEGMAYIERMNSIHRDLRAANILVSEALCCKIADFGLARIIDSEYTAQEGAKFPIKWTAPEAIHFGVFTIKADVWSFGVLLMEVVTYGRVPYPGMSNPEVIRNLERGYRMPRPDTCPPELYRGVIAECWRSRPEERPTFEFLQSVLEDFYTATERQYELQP
Sequence of PIK3CA (H1047Y) (P42336 whole entry H1047Y): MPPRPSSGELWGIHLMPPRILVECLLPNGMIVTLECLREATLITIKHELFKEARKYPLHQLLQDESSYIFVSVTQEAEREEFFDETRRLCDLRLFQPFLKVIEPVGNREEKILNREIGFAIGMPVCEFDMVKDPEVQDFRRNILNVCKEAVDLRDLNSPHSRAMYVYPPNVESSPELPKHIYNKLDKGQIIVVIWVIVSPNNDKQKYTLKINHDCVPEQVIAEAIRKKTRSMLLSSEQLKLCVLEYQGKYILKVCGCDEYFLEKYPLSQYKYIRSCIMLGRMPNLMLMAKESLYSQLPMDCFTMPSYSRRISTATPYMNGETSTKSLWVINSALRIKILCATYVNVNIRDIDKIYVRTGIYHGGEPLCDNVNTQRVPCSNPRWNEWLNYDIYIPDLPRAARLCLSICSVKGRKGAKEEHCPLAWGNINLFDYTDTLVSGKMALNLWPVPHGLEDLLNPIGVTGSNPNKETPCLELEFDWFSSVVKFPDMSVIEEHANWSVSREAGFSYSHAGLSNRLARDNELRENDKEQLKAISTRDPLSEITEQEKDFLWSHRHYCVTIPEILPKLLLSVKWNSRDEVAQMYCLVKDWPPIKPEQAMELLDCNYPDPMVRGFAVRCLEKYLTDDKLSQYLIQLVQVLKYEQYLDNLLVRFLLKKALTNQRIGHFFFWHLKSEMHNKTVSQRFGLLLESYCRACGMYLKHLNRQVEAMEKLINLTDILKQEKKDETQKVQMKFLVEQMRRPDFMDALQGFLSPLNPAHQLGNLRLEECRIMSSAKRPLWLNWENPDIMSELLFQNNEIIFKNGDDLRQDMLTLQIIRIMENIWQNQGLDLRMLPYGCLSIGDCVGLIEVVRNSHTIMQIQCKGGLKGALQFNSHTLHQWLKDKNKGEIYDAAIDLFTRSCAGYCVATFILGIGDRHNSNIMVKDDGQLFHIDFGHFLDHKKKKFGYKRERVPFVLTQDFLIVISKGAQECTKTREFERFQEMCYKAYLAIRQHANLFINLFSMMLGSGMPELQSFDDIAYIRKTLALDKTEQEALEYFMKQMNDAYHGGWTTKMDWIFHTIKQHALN
Sequence of BRSK1 (Q8TDC3 whole entry): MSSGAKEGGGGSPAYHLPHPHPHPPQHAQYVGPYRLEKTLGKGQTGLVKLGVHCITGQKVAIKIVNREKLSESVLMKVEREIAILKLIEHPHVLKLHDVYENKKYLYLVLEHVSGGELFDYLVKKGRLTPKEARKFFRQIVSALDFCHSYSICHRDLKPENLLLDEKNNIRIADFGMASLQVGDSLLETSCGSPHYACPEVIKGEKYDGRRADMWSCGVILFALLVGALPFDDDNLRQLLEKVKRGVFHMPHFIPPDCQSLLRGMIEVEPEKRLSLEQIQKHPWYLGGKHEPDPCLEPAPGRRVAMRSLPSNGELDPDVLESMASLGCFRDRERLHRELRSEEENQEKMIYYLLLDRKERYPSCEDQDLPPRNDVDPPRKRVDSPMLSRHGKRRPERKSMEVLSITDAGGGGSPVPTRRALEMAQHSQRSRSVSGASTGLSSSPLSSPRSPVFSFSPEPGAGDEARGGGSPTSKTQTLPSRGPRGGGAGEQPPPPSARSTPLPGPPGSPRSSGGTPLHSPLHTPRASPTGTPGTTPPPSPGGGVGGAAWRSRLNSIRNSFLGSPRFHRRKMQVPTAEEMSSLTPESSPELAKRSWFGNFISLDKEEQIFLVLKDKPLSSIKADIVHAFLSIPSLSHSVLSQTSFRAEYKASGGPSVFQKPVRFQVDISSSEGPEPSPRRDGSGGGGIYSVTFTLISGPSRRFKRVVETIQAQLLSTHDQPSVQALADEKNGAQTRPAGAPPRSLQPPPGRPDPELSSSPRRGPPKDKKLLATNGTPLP
Sequence of FGFR2 (P21802 22-821): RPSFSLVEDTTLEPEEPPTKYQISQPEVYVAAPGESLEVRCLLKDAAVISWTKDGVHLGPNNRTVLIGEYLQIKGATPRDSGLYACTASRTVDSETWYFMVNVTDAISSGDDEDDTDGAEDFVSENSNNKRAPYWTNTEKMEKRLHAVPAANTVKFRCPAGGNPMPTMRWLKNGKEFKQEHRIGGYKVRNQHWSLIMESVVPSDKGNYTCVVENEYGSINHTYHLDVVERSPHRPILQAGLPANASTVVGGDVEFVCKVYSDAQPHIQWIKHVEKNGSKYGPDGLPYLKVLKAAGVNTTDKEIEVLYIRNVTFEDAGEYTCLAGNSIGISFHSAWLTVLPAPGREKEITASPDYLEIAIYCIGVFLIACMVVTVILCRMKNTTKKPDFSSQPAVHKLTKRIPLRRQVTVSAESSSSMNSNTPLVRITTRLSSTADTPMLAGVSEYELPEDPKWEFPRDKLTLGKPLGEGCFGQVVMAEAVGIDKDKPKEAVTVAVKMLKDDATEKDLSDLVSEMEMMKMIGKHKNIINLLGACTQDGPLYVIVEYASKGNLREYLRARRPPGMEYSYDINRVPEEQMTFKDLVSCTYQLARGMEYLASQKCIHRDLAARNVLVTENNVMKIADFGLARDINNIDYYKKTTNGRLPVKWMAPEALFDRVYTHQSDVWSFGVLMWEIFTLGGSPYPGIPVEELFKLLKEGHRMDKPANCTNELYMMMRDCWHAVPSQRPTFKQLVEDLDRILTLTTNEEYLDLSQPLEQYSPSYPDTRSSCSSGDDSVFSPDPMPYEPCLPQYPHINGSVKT
Sequence of DDR2 (Q16832 22-855): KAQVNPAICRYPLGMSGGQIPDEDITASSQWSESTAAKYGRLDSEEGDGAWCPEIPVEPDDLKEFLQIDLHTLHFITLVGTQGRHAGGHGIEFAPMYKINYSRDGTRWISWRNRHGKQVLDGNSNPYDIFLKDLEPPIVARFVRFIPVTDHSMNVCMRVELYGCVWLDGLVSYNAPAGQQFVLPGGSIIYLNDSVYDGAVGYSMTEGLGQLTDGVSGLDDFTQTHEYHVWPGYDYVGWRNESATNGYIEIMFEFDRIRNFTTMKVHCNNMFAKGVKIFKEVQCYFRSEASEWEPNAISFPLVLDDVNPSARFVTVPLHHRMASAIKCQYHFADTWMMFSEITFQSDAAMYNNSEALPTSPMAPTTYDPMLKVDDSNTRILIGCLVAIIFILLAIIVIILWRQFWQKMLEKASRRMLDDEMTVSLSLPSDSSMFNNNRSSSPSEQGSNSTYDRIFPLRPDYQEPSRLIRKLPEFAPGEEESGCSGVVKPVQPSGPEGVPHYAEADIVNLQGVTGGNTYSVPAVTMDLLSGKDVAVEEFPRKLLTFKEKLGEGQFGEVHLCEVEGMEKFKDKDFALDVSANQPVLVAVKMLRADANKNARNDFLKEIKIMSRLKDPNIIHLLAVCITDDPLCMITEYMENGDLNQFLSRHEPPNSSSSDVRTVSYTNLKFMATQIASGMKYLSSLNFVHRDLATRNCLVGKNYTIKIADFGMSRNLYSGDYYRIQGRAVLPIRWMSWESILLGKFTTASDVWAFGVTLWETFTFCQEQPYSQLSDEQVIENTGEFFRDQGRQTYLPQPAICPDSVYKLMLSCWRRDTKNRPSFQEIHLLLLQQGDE
Sequence of PIK3CA (E545A) (P42336 whole entry E545A): as the sequence (P42336 whole entry H1047Y) above, with E545A, Y1047H counted along it

For `COc1ccc(N2C(=O)N(c3c(C)cccc3C)Cc3cnc(Nc4ccc(N5CCN(C)CC5)cc4)nc32)c(OC)c1` [HG-11-136-01], the “KINOMEscan SRC” value (SRC) was 0.15, the “KINOMEscan PIM2” value (PIM2) was 100 and the “KINOMEscan TYRO3” value (TYRO3) was 1.6. For the same molecule, the “KINOMEscan LIMK2” value (LIMK2) was 0, the “KINOMEscan ABL1 (H396P)-nonphosphorylated” value [1] was 0 and the “KINOMEscan p38-beta” value (p38-beta) was 3.1. The “KINOMEscan BTK” value (BTK) was 0.05, the “KINOMEscan AKT1” value (AKT1) was 100 and the “KINOMEscan PIK3CA (H1047Y)” value (PIK3CA (H1047Y)) was 63. For the same molecule, the “KINOMEscan ICK” value (ICK) was 61, the “KINOMEscan IRAK1” value (IRAK1) was 4.4 and the “KINOMEscan ABL1 (F317L)-phosphorylated” value [2] was 1.8. For the same molecule, the “KINOMEscan MLK1” value (MLK1) was 6, the “KINOMEscan PIK3CA (E545A)” value (PIK3CA (E545A)) was 69 and the “KINOMEscan BRSK1” value (BRSK1) was 100. The “KINOMEscan EGFR” value (EGFR) was 0.7, the “KINOMEscan CHEK1” value (CHEK1) was 82 and the “KINOMEscan KIT (V559D, V654A)” value (KIT (V559D, V654A)) was 2.2. The “KINOMEscan MAP4K2” value (MAP4K2) was 0.3, the “KINOMEscan PRKCE” value (PRKCE) was 61 and the “KINOMEscan CASK” value (CASK) was 54. The “KINOMEscan DDR2” value (DDR2) was 1.6, the “KINOMEscan SRMS” value (SRMS) was 0 and the “KINOMEscan EGFR (G719C)” value (EGFR (G719C)) was 0.1. For the same molecule, the “KINOMEscan FLT1” value (FLT1) was 5.2, the “KINOMEscan ERBB3” value (ERBB3) was 0 and the “KINOMEscan MELK” value (MELK) was 36. For the same molecule, the “KINOMEscan PIK3C2G” value (PIK3C2G) was 87, the “KINOMEscan MAP3K3” value (MAP3K3) was 0.1 and the “KINOMEscan BLK” value (BLK) was 0.1. For the same molecule, the “KINOMEscan PRKR” value (PRKR) was 73, the “KINOMEscan CSNK1G3” value (CSNK1G3) was 84 and the “KINOMEscan TAK1” value (TAK1) was 11. The “KINOMEscan LOK” value (LOK) was 0, the “KINOMEscan MAP4K3” value (MAP4K3) was 1.8 and the “KINOMEscan TGFBR1” value (TGFBR1) was 33. For the same molecule, the “KINOMEscan BMPR1A” value (BMPR1A) was 4.6, the “KINOMEscan ABL1 (Q252H)-nonphosphorylated” value [3] was 0 and the “KINOMEscan FGFR2” value (FGFR2) was 0.8. For the same molecule, the “KINOMEscan ADCK4” value (ADCK4) was 44.
